Tested on: costo-vertebral organ (CVO) of the hamster
Test: CVO test: inhibition of the "testosterone effect" by food supplements
Format: in vivo
Conditions: daily topical application of testosterone to the right CVO from day 50; control animals without food supplement; FIG. 1
Text: 1-A: Principle of the CVO Test:
The CVO of the hamster is a cutaneous region rich in pilosebaceous units.
The CVO test consists of determining the anti-androgenic action of different compounds on the CVO, i.e., of determining whether said compounds prevent the action of testosterone (Liao S et al., Arch Dermatol Res, 293(4), 200-206 (2001)).
Consequently, this figure illustrates the “testosterone effect”.
As from the fiftieth day (dotted arrow), testosterone was applied daily to the right CVO.
The following products were used in the context of the in vivo CVO test such as defined above. These products were tested as food supplements, alone or in combination. • (a) the natural aroma of red wine rich in resveratrol (stilbenes) and proanthocyanidines (flavonoids) in the proportion of 0.11 g in 43 g of food (18% of polyphenols); • (b) a soja extract containing 40% of isoflavonoids, in a proportion of 0.02 g of extract in 44 g of food (40% of isoflavones); • (c) black currant pip oil rich in γ-linolenic acid (polyunsaturated fatty acid 18:3 n-6) in a proportion of 10% by weight in the foodstuff; • (d) the combination of the above three products.

C[C@]12CC[C@H]3[C@@H](CCC4=CC(=O)CC[C@@]43C)[C@@H]1CC[C@@H]2O [testosterone]
size of the right CVO compared with that of the left CVO ("testosterone effect"): increase in the size

Source: patent US20060035846A1, “Preventing/correcting functional disorders of the pilosebaceous unit of mammals” (L'OREAL, priority 2002, published 2006)
